Legend:
Test in all cases: relative viability (nuclei count vs DMSO), 5 days (fraction); higher = more cells survive
AT-7519 + Palbociclib = compound: O=C(NC1CCNCC1)c1n[nH]cc1NC(=O)c1c(Cl)cccc1Cl [AT-7519] + CC(=O)c1c(C)c2cnc(Nc3ccc(N4CCNCC4)cn3)nc2n(C2CCCC2)c1=O [Palbociclib] (partner 0.5 µM)
How it was run: (§1)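 For relative viability, nuclei counts in treated wells were divided by those in vehicle wells. Lung cancer cell lines had been pin-tool dosed in 1536-well plates the day after seeding and cultured for 5 days, then fixed and stained in one step (final 0.05% Triton X-100, 1% formaldehyde, 1 ug/ml Hoechst) and imaged at 4×. Doses were one drug alone or a fixed anchor-drug dose plus five library-drug doses (not always all listed) in √10 steps, and values are duplicate-plate medians.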

AT-7519 + Tozasertib = compound: O=C(NC1CCNCC1)c1n[nH]cc1NC(=O)c1c(Cl)cccc1Cl [AT-7519] + Cc1cc(Nc2cc(N3CCN(C)CC3)nc(Sc3ccc(NC(=O)C4CC4)cc3)n2)n[nH]1 [Tozasertib] (partner 0.1 µM)
How it was run: as §1

AT-7519 + Alpelisib = compound: O=C(NC1CCNCC1)c1n[nH]cc1NC(=O)c1c(Cl)cccc1Cl [AT-7519] + Cc1nc(NC(=O)N2CCC[C@H]2C(N)=O)sc1-c1ccnc(C(C)(C)C(F)(F)F)c1 [Alpelisib] (partner 2 µM)
How it was run: as §1

AT-7519 + Phenformin = compound: O=C(NC1CCNCC1)c1n[nH]cc1NC(=O)c1c(Cl)cccc1Cl [AT-7519] + N=C(N)NC(=N)NCCc1ccccc1 [Phenformin] (partner 250 µM)
How it was run: as §1

Row | Cell Line | relative viability (AT-7519 + Palbociclib; first compound 0.01 µM) | relative viability (AT-7519 + Palbociclib; first compound 0.03162 µM) | relative viability (AT-7519 + Palbociclib; first compound 0.3162 µM) | relative viability (AT-7519 + Palbociclib; first compound 1 µM) | relative viability (AT-7519 + Tozasertib; first compound 0.01 µM) | relative viability (AT-7519 + Tozasertib; first compound 0.03162 µM) | relative viability (AT-7519 + Tozasertib; first compound 0.3162 µM) | relative viability (AT-7519 + Tozasertib; first compound 1 µM) | relative viability (AT-7519 + Alpelisib; first compound 0.01 µM) | relative viability (AT-7519 + Alpelisib; first compound 0.03162 µM) | relative viability (AT-7519 + Alpelisib; first compound 0.3162 µM) | relative viability (AT-7519 + Alpelisib; first compound 1 µM) | relative viability (AT-7519 + Phenformin; first compound 0.01 µM) | relative viability (AT-7519 + Phenformin; first compound 0.03162 µM) | relative viability (AT-7519 + Phenformin; first compound 0.3162 µM) | relative viability (AT-7519 + Phenformin; first compound 1 µM)
1 | NCI-H2009 | 0.209 | 0.2 | 0.19 | 0.18 | 0.751 | 0.72 | 0.703 | 0.515 | 1.14 | 1.12 | 1.15 | 0.668 | 0.521 | 0.451 | 0.472 | 0.276
2 | NCI-H2023 | 0.393 | 0.401 | 0.243 | 0.0824 | 0.362 | 0.379 | 0.295 | 0.135 | 0.648 | 0.711 | 0.498 | 0.3 | 0.389 | 0.435 | 0.321 | 0.0704
3 | NCI-H2085 | 0.454 | 0.503 | 0.515 | 0.608 | 0.768 | 0.853 | 0.787 | 0.819 | 0.899 | 0.926 | 0.941 | 0.656 | 0.744 | 0.7 | 0.759 | 0.53
4 | NCI-H2087 | 0.226 | 0.224 | 0.186 | 0.116 | 0.255 | 0.269 | 0.282 | 0.0867 | 1.14 | 1.21 | 1.01 | 0.161 | 0.472 | 0.442 | 0.479 | 0.172
5 | NCI-H2126 | 0.348 | 0.352 | 0.358 | 0.341 | 0.946 | 0.865 | 0.504 | 0.32 | 0.766 | 0.798 | 0.749 | 0.695 | 0.552 | 0.494 | 0.491 | 0.33
6 | NCI-H2170 | 0.418 | 0.427 | 0.345 | 0.423 | 0.672 | 0.751 | 0.762 | 0.651 | 0.828 | 0.796 | 0.794 | 0.81 | 0.412 | 0.414 | 0.423 | 0.418
7 | NCI-H2228 | 0.638 | 0.642 | 0.636 | 0.408 | 0.253 | 0.273 | 0.227 | 0.179 | 0.972 | 0.821 | 0.584 | 0.415 | 0.298 | 0.305 | 0.193 | 0.165
8 | NCI-H2347 | 0.397 | 0.44 | 0.469 | 0.374 | 0.635 | 0.512 | 0.425 | 0.442 | 1.2 | 0.952 | 1.08 | 0.771 | 0.281 | 0.388 | 0.582 | 0.185
9 | NCI-H2405 | 0.534 | 0.523 | 0.532 | 0.381 | 0.819 | 0.797 | 0.725 | 0.463 | 0.934 | 0.773 | 0.716 | 0.331 | 0.375 | 0.39 | 0.35 | 0.32
10 | NCI-H3122 | 0.212 | 0.506 | 0.221 | 0.145 | 0.535 | 0.41 | 0.175 | 0.136 | 0.827 | 0.699 | 0.813 | 0.263 | 0.405 | 0.37 | 0.325 | 0.13
11 | PC-3 [JPC-3] | 0.591 | 0.548 | 0.508 | 0.575 | 0.93 | 0.903 | 0.88 | 0.902 | 1.02 | 1.03 | 1.04 | 1.03 | 0.471 | 0.474 | 0.45 | 0.484
12 | PC-14 | 0.433 | 0.502 | 0.338 | 0.0604 | 0.591 | 0.677 | 0.526 | 0.392 | 0.839 | 1 | 1 | 0.912 | 0.519 | 0.566 | 0.424 | 0.314
13 | RERF-LC-KJ | 1.09 | 1.13 | 0.86 | 0.55 | 0.426 | 0.505 | 0.5 | 0.204 | 0.787 | 0.718 | 0.768 | 0.537 | 0.456 | 0.418 | 0.388 | 0.217
14 | SK-LU-1 | 0.38 | 0.361 | 0.361 | 0.311 | 0.306 | 0.364 | 0.254 | 0.264 | 1.13 | 0.94 | 0.861 | 0.351 | 0.499 | 0.444 | 0.322 | 0.231
15 | SK-MES-1 | 0.304 | 0.31 | 0.295 | 0.204 | 0.928 | 1 | 0.814 | 0.243 | 0.839 | 0.699 | 0.86 | 0.397 | 0.655 | 0.651 | 0.63 | 0.331
16 | SW 1573 | 0.38 | 0.368 | 0.212 | 0.109 | 0.151 | 0.151 | 0.143 | 0.125 | 0.802 | 0.739 | 0.743 | 0.394 | 0.421 | 0.349 | 0.236 | 0.0778
17 | UMC-11 | 0.319 | 0.328 | 0.283 | 0.25 | 0.223 | 0.211 | 0.278 | 0.219 | 0.841 | 0.94 | 0.587 | 0.35 | 0.319 | 0.339 | 0.308 | 0.237

Reference: the supplement of paper PMC10307832
